In test [1] the target is T1, Apoptotic protease-activating factor 1 (Homo sapiens, UniProt O14727).
T1 sequence (O14727 whole entry): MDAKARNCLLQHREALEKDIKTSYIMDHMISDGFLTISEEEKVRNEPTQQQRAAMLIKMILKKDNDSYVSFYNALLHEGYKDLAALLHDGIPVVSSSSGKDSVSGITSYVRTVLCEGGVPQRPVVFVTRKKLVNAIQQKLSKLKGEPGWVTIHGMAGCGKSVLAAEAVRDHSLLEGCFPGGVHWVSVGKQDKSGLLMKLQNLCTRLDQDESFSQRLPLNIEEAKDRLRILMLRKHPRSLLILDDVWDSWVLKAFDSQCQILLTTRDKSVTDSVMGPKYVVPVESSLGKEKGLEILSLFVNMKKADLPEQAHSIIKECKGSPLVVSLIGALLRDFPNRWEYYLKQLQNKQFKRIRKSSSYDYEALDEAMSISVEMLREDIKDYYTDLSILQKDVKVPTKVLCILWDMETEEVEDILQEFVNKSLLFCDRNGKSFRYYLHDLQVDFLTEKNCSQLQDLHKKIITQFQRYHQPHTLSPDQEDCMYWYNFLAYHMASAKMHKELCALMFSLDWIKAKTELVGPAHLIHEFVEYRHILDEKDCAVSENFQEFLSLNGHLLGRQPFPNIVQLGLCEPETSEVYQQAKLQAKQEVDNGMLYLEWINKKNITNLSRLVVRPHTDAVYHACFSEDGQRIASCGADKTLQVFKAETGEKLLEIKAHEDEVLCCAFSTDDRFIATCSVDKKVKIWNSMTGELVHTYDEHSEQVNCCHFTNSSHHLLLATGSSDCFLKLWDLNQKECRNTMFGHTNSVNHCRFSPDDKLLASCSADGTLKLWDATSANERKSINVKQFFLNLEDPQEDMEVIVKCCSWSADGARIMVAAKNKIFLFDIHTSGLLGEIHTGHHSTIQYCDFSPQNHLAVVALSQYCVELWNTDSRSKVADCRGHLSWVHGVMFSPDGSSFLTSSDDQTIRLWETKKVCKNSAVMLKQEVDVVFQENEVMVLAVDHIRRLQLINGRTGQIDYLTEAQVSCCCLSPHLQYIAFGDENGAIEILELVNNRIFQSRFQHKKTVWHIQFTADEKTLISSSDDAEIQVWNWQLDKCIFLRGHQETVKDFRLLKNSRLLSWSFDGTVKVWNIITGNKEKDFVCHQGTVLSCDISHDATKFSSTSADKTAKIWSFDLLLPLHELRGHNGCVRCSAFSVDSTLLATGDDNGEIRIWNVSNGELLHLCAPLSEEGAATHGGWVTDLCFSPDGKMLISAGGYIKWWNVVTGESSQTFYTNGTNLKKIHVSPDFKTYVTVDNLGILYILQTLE
The test is classed as functional.

Test [2] in a line: CEM21 lymphoblast cell cytotoxicity, dose response, cytotoxicity control for viral fusion inhibitor project, CellTiter-Glo luminescence, cherry-picked (AID 652042).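 Also: potency for signal decrease meaning cytotoxicity.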 It is filed as functional, cell-based.
A further test has as its system Jurkat. The test can be described thus: antigen receptor-induced NF-kB inhibitors, dose response, Jurkat, luciferase reporter, luminescence, B- and T-cell (AID 489004).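 Also: NF-kB luciferase reporter Jurkat cells stimulated with PMA plus ionomycin.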 It is filed as functional, cell-based. The conditions noted are these: Homo sapiens.
For another test, the system named is INS1. In words: beta cell apoptosis inhibitors, cytokine rescue, dose response, luminescence, retest (AID 449756).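 Also: cell death triggered by IL-1 beta plus TNF-alpha plus IFN-gamma mixture; protective hits raise ATP signal compared with cytokine alone wells.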 The test is classed as functional, cell-based. The note with it: Rattus norvegicus.
Test [3] in a line: microbe, parasite or virus in culture. It is filed as functional. The note with it: Mycobacterium tuberculosis.
A short description of test [4]: luciferase reporter signal reduction – luminescence, H4-C neuroglioblastoma cells, dose response (AID 2458).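 Also: H4 neuroglioblastoma cells stably carrying a luciferase reporter gene fusion.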 It is filed as functional, cell-based.
The nature of test [5]: Luminescence-based dose response cell-based high throughput screening assay for cytotoxic compounds using the IEC-6 intestinal epithelial cell line. [Related pubchem assays: 1858 (Summary AID.), 1825 (Counterscreen.), 1907 (Confirmation screen.)]. The test is classed as functional.
Test [6] is described as follows: Luminescence Cell-Based Dose Response HTS to Identify Inhibitors of 5'UTR Stem-Loop Driven Prion Protein mRNA Translation in H4 Neuroglioblastoma Cells. [Related pubchem assays: 1827 (Project Summary), 1813 (Primary HTS)]. It is filed as functional.
The target in a further test is T2, Protein RecA (Mycobacterium tuberculosis, UniProt P9WHJ3).
T2 sequence (P9WHJ3 whole entry): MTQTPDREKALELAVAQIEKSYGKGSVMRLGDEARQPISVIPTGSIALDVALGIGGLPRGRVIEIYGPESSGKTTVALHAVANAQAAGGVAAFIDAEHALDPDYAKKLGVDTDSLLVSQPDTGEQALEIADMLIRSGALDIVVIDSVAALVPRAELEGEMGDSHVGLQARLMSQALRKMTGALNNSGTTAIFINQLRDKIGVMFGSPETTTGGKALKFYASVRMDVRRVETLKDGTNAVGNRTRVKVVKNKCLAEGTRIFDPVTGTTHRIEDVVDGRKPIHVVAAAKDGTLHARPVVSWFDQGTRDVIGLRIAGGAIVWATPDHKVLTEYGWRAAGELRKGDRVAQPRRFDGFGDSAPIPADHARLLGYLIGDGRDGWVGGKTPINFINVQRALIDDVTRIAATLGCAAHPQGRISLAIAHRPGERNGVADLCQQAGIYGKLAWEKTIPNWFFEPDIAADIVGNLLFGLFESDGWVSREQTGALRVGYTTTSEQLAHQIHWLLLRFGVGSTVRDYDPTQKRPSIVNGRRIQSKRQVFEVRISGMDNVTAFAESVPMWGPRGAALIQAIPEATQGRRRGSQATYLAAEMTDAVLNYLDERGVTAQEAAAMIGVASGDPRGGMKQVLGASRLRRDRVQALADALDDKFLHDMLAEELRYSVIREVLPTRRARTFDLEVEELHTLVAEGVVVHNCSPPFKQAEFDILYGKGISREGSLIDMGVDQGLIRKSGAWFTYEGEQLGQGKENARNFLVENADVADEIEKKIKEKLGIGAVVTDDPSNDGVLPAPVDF
In words: GFP-RecA MOA-DTT Measured in Biochemical System Using Plate Reader - 2047-05_Inhibitor_Dose_DryPowder_Activity. [Related pubchem assays (depositor defined):AID2223]. Also on record: species or system Mycobacterium tuberculosis H37Rv.

Test [7] deals with Matrix metalloproteinase-14 (Homo sapiens, UniProt P50281). The test can be described thus: Dose Response confirmation of uHTS hits for a small molecule inhibitors of MT1-MMP activation in a fluorescence assay set 2. The test is classed as functional.
Test [8] has as its target 1-phosphatidylinositol 4,5-bisphosphate phosphodiesterase beta-3 (Homo sapiens, UniProt Q01970). In words: Fluorescence-based biochemical high throughput dose response assay to identify inhibitors of phospholipase C isozymes (PLC-B3).

Consider 3 molecules from ChEMBL document CHEMBL1201862, “PubChem BioAssay data set” (2004).

Activity calls are given as the source filed them. Where only a bound is given, the exact number is not on record here.

Sequence of 1-phosphatidylinositol 4,5-bisphosphate phosphodiesterase beta-3 (Q01970 whole entry): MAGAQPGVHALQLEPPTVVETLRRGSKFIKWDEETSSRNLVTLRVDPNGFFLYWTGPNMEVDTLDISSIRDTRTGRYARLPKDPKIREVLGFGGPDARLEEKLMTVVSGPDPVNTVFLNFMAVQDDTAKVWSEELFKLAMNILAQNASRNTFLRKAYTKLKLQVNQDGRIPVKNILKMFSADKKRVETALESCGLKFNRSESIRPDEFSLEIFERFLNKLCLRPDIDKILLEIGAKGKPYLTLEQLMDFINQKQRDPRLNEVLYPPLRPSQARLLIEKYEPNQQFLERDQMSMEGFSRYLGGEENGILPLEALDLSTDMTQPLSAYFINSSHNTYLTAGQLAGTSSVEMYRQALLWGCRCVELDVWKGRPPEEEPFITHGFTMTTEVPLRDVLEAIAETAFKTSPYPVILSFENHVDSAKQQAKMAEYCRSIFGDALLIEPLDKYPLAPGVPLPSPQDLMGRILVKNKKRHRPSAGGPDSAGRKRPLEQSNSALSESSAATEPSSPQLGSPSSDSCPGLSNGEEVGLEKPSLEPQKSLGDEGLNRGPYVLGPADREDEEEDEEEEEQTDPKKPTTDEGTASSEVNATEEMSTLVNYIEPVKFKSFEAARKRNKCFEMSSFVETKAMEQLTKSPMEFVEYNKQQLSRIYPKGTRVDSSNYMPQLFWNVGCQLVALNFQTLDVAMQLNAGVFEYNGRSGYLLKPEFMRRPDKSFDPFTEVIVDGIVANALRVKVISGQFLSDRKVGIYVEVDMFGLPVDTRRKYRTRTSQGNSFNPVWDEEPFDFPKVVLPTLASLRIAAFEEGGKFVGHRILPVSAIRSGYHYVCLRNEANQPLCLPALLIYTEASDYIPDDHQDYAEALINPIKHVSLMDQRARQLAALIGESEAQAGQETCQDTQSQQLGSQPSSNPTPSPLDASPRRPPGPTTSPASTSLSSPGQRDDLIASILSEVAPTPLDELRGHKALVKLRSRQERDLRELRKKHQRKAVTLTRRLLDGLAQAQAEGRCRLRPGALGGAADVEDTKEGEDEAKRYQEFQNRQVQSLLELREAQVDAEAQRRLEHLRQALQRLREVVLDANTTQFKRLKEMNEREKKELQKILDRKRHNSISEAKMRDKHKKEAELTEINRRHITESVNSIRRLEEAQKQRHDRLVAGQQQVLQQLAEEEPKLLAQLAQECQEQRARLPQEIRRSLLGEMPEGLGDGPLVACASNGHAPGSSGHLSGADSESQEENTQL

As for `CCCCCCCCCCOC(=O)C[n+]1c(COc2ccccc2OC)n(C)c2ccccc21`, the figures for the IC50 (in test [1]; in the test on Jurkat) were 14.3 µM (active) and 4.4 µM (active), respectively. The figures for the AC50 (in [2]; in the test with INS1) were 6.91 µM (active) and 1.04 µM (active), respectively.

As for `Cc1oc2c(c1C(=O)NCc1cccnc1)C(=O)c1ccccc1C2=O`, the CC50 in test [3] was 295 nM (active). Moreover, the EC50 in test [4] was 127 nM (active); in test [6] it was < 100 nM (active). In [5], the IC50 is 158 nM (active). Besides, the AC50 on Protein RecA is 10.8 µM (active).

As to `O=c1ccc2c(-c3ccccc3S(=O)(=O)O)c3ccc(O)c(O)c3oc-2c1O` [PYROGALLOL RED], the results for the IC50 in test [7] and in [8] were 19.6 µM (active) and > 40.8 µM (inactive), respectively.
